Measurements as given in PubChem BioAssay AID2060621 (Molecular Pharmacology Branch, DTP, NCI, 2025).
Several values for one entry are separate records, joined by “and”; a condition that tells them apart may be missing. Equal values may be shown once. Blank lines part the entries; values can stand above or below the compound they belong to.

System: 324938-238-R-J1-PDC complex spheroids viability
Experiment: Anticancer human tumor 324938-238-R-J1-PDC patient-derived bladder carcinoma cell line growth inhibition [CLK]
Settings: for viability, T/C: stronger effect = lower value
From the text: A high-throughput screen of multi-cell type tumor spheroids was designed to identify active combinations of […] and targeted small molecules. Complex spheroids include a stromal component modeled by human endothelial cells (HUVEC) and fibroblasts modeled by human mesenchymal stem cells (MSCs). The concentration ranges selected for each drug and investigational agent were based upon clinically achievable concentrations if the clinical Cmax of the agent was known.
Compounds. The drugs and investigational agents: cirtuvivint (SM08502; NSC835563), CC-671 (NSC850746), vemurafenib (NSC761431), tapotoclax (NSC804041), sotorasib (NSC818433), adagrasib (NSC831453), MRTX-1133 (NSC836407), BAY2416964 (NSC825713), copanlisib (NSC816437), inavolisib (NSC800729), abemaciclib (NSC768073), osimertinib (NSC779217), entinostat (NSC756642), eltanexor (KPT-8602, NSC794443), venetoclax (NSC766270), ceralasertib (NSC777638), bortezomib (NSC756655), olaparib (NSC753686), talazoparib (NSC767125), alisertib (NSC759677), peposertib (NSC802822), gemcitabine (NSC613327), 5-fluorouracil (NSC19893), SN-38 (NSC673596), oxaliplatin (NSC266046), paclitaxel (NSC125973), and doxorubicin (NSC123127), were obtained from the National Cancer Institute (NCI) Developmental Therapeutics Program Chemical Repository. The FDA-approved anticancer drug set is available from the Developmental Therapeutics Program at https://dtp.cancer.gov/organization/dscb/obtaining/available plates.htm. […] The stock solutions were prepared in dimethyl sulfoxide (DMSO, Sigma-Aldrich, St. Louis, MO, cat. D2650), except for the platinum complexes which were prepared in saline (Quality Biological, Gaithersburg, MD, cat. 114-055-101), at 800-fold the tested concentration and stored at -70 degrees C prior to their use. All drugs and investigational agents were tested over a range starting from a high concentration at or near the clinical Cmax and decreasing in half-log increments. If the clinical Cmax for an agent had not been determined, the highest concentration tested was 10 microM.
Cell Culture. All cells were maintained in an incubator at 37 degrees C and 5% CO2 with 95% humidity. The PDC lines were cultured according to standard operating procedures established by the NCI PDMR. Briefly, all PDCs were thawed and cultured in Matrigel-coated flasks prepared with a working solution of 1X Ham's F-12 nutrient mix, without supplementation (Invitrogen, Waltham, MA, cat. 11765054), 100 U/mL penicillin-streptomycin (Invitrogen, cat. 15140122), and 2.5% Matrigel (Corning Inc., Corning, NY, cat. 354248) for the first three passages. The 947758-054-R-J2-PDC line was cultured in 6B/Colon 1A media, which includes advanced DMEM/F-12 (Thermo Fisher Scientific, cat. 12634028), 10 mM HEPES (Thermo Fisher Scientific, cat. 15630080), 1X GlutaMAX supplement (Thermo Fisher Scientific, cat. 35050061), 0.1 mg/mL primocin (InvivoGen, cat. ant-pm-2), 10% defined fetal bovine serum, heat inactivated (HyClone Laboratories Inc., cat. SH30070.03HI), 1.25 mM N-Acetyl-L-cysteine (Sigma-Aldrich, cat. A9165), 10 mM nicotinamide (Sigma-Aldrich, cat. N0636), 1X B-27 supplement (Thermo Fisher Scientific, cat. 17504044), 1X N-2 supplement (Thermo Fisher Scientific, cat. 17502048), and 10 microM Y-27632 dihydrochloride (Tocris Bioscience, cat. 1254). The 876862-298-R-J1-PDC was cultured in 6E media, which includes all 6B/Colon 1A media components plus 50% L-WRN conditioned media (ATCC, cat. CRL-3276), 50 ng/mL recombinant human EGF recombinant protein (hEGF; Thermo Fisher Scientific, cat. PHG0311), 10 ng/mL recombinant human fibroblast growth factor 10 (hGFG-10; PeproTech, cat. 100-26), 1 ng/mL recombinant human fibroblast growth factor 2 (hFGF-2; PeproTech, cat. 100-18B), and 1 µM prostaglandin E2 (PGE2; Tocris, cat. 2296). The 227483-062-R1-J1-PDC line was cultured in Panc media, containing all 6E components except hFGF-2, with the addition of 500 nM SB-431542 (Selleckchem, cat. S1067) and 10 nM gastrin (Tocris, cat. 3006). […]

[1] = curve of first compound, second compound 0.0316 µM
[2] = curve of first compound, second compound 0.1 µM
[3] = curve of first compound, second compound 0.316 µM
[4] = curve of first compound, second compound 1 µM
[5] = curve of first compound, second compound 3.16 µM
[6] = curve of first compound, second compound 10 µM
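Further: viability read after seven days of drug exposure.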
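Wherever viability, T/C is given: 100% = DMSO vehicle control wells.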

IC50 [1]: 1470 nM
IC50 [2]: < 31.6 nM
IC50 [3]: < 31.6 nM
IC50 [4]: < 31.6 nM
IC50 [5]: < 31.6 nM
IC50 [6]: < 31.6 nM
SMILES: Nc1ccccc1NC(=O)c1ccc(CNC(=O)OCc2cccnc2)cc1 + CNC(=O)c1ccc(Nc2nc(OC3CCCC3)c3c(-c4ccc5nc(C)oc5c4)c[nH]c3n2)c(OC)c1
viability, T/C (second compound 0.0316 µM, first compound 0.0316 µM): 78.2%
viability, T/C (second compound 0.0316 µM, first compound 0.1 µM): 91.8%
viability, T/C (second compound 0.0316 µM, first compound 0.316 µM): 69%
viability, T/C (second compound 0.0316 µM, first compound 1 µM): 57.2%
viability, T/C (second compound 0.0316 µM, first compound 3.16 µM): 35%
viability, T/C (second compound 0.0316 µM, first compound 10 µM): 5.41%
viability, T/C (second compound 0.1 µM, first compound 0.0316 µM): 31.1%
viability, T/C (second compound 0.1 µM, first compound 0.1 µM): 32.7%
viability, T/C (second compound 0.1 µM, first compound 0.316 µM): 30.4%
viability, T/C (second compound 0.1 µM, first compound 1 µM): 34%
viability, T/C (second compound 0.1 µM, first compound 3.16 µM): 32.6%
viability, T/C (second compound 0.1 µM, first compound 10 µM): 4.92%
viability, T/C (second compound 0.316 µM, first compound 0.0316 µM): 15.1%
viability, T/C (second compound 0.316 µM, first compound 0.1 µM): 17%
viability, T/C (second compound 0.316 µM, first compound 0.316 µM): 15.8%
viability, T/C (second compound 0.316 µM, first compound 1 µM): 23.2%
viability, T/C (second compound 0.316 µM, first compound 3.16 µM): 26.1%
viability, T/C (second compound 0.316 µM, first compound 10 µM): 3.89%
viability, T/C (second compound 1 µM, first compound 0.0316 µM): 14.2%
viability, T/C (second compound 1 µM, first compound 0.1 µM): 14.6%
viability, T/C (second compound 1 µM, first compound 0.316 µM): 16.7%
viability, T/C (second compound 1 µM, first compound 1 µM): 23.7%
viability, T/C (second compound 1 µM, first compound 3.16 µM): 26.2%
viability, T/C (second compound 1 µM, first compound 10 µM): 2.44%
viability, T/C (second compound 3.16 µM, first compound 0.0316 µM): 13%
viability, T/C (second compound 3.16 µM, first compound 0.1 µM): 15.2%
viability, T/C (second compound 3.16 µM, first compound 0.316 µM): 18.6%
viability, T/C (second compound 3.16 µM, first compound 1 µM): 18.9%
viability, T/C (second compound 3.16 µM, first compound 3.16 µM): 26.2%
viability, T/C (second compound 3.16 µM, first compound 10 µM): 2.46%
viability, T/C (second compound 10 µM, first compound 0.0316 µM): 15.2%
viability, T/C (second compound 10 µM, first compound 0.1 µM): 17.1%
viability, T/C (second compound 10 µM, first compound 0.316 µM): 19%
viability, T/C (second compound 10 µM, first compound 1 µM): 20.7%
viability, T/C (second compound 10 µM, first compound 3.16 µM): 25.8%
viability, T/C (second compound 10 µM, first compound 10 µM): 2.14%

IC50 [1]: 1.27 nM
IC50 [2]: < 0.949 nM
IC50 [3]: < 0.949 nM
IC50 [4]: < 0.949 nM
IC50 [5]: < 0.949 nM
IC50 [6]: < 0.949 nM
SMILES: CC(C)CC(NC(=O)C(Cc1ccccc1)NC(=O)c1cnccn1)B(O)O (stereo unspecified) + CNC(=O)c1ccc(Nc2nc(OC3CCCC3)c3c(-c4ccc5nc(C)oc5c4)c[nH]c3n2)c(OC)c1
viability, T/C (second compound 0.0316 µM, first compound 0.000949 µM): 66.2%
viability, T/C (second compound 0.0316 µM, first compound 0.003 µM): 1.72%
viability, T/C (second compound 0.0316 µM, first compound 0.00949 µM): 0.22%
viability, T/C (second compound 0.0316 µM, first compound 0.03 µM): 0.21%
viability, T/C (second compound 0.0316 µM, first compound 0.0949 µM): 0.13%
viability, T/C (second compound 0.0316 µM, first compound 0.3 µM): 0.19%
viability, T/C (second compound 0.1 µM, first compound 0.000949 µM): 37.7%
viability, T/C (second compound 0.1 µM, first compound 0.003 µM): 1.25%
viability, T/C (second compound 0.1 µM, first compound 0.00949 µM): 0.18%
viability, T/C (second compound 0.1 µM, first compound 0.03 µM): 0.13%
viability, T/C (second compound 0.1 µM, first compound 0.0949 µM): 0.55%
viability, T/C (second compound 0.1 µM, first compound 0.3 µM): 0.13%
viability, T/C (second compound 0.316 µM, first compound 0.000949 µM): 21.6%
viability, T/C (second compound 0.316 µM, first compound 0.003 µM): 1.05%
viability, T/C (second compound 0.316 µM, first compound 0.00949 µM): 0.17%
viability, T/C (second compound 0.316 µM, first compound 0.03 µM): 0.08%
viability, T/C (second compound 0.316 µM, first compound 0.0949 µM): 0.1%
viability, T/C (second compound 0.316 µM, first compound 0.3 µM): 0.13%
viability, T/C (second compound 1 µM, first compound 0.000949 µM): 17.3%
viability, T/C (second compound 1 µM, first compound 0.003 µM): 0.5%
viability, T/C (second compound 1 µM, first compound 0.00949 µM): 0.13%
viability, T/C (second compound 1 µM, first compound 0.03 µM): 0.1%
viability, T/C (second compound 1 µM, first compound 0.0949 µM): 0.1%
viability, T/C (second compound 1 µM, first compound 0.3 µM): 0.12%
viability, T/C (second compound 3.16 µM, first compound 0.000949 µM): 12.2%
viability, T/C (second compound 3.16 µM, first compound 0.003 µM): 0.3%
viability, T/C (second compound 3.16 µM, first compound 0.00949 µM): 0.2%
viability, T/C (second compound 3.16 µM, first compound 0.03 µM): 0.09%
viability, T/C (second compound 3.16 µM, first compound 0.0949 µM): 0.14%
viability, T/C (second compound 3.16 µM, first compound 0.3 µM): 0.16%
viability, T/C (second compound 10 µM, first compound 0.000949 µM): 12%
viability, T/C (second compound 10 µM, first compound 0.003 µM): 0.29%
viability, T/C (second compound 10 µM, first compound 0.00949 µM): 0.87%
viability, T/C (second compound 10 µM, first compound 0.03 µM): 0.13%
viability, T/C (second compound 10 µM, first compound 0.0949 µM): 1.24%
viability, T/C (second compound 10 µM, first compound 0.3 µM): 0.19%

IC50 (curve of compound): 1.23 nM and 1.07 nM
SMILES: CC(C)CC(NC(=O)C(Cc1ccccc1)NC(=O)c1cnccn1)B(O)O (stereo unspecified)
viability, T/C (compound 0.000949 µM): 63.7% and 55.5%
viability, T/C (compound 0.003 µM): 2.77% and 1.54%
viability, T/C (compound 0.00949 µM): 0.22% and 0.18%
viability, T/C (compound 0.03 µM): 0.44% and 0.2%
viability, T/C (compound 0.0949 µM): 0.18% and 0.12%
viability, T/C (compound 0.3 µM): 0.35% and 0.13%
